# Experiments:
# rat PARG = target: T1, rat PARG (Rattus norvegicus, UniProt Q9QYM2); assay: TR-FRET PAR turnover assay (HTS and dose-response); type: biochemical; conditions: for IC50: dose-response, rat PARG 12.5 nM, read-out: Estimated IC50; for TR-FRET: 6.7 μM compound
# T1 construct: The catalytic domain of rat PARG (residues 385–972) was purified as described previously; made in house
# Excerpt: Importantly, PARG enzymatic function can be required for tumorigenesis. Therefore, we sought to identify a selective PARG inhibitor through our robust PARG enzyme kinetic assay, which quantitatively monitors real-time PAR-mediated PARP1-XRCC1 interactions and disassembly in a multi-well format. A strong TR-FRET signal was generated upon assembly of the Tb^3+-chelated XRCC1 (FRET donor) with PARylated PARP1, which incorporates fluorescein-labeled ADP-ribose moieties into PAR chains (FRET acceptor). The addition of PARG caused a time-dependent loss of the TR-FRET signal by reversing PARylation and disassembling the PARP1-XRCC1 complex (Supplementary Fig. 1)[37].
# For a high-throughput screening (HTS) of PARG inhibitors, we developed a high-throughput PARG activity assay using the TR-FRET system (a manuscript describing the details of this assay will be published elsewhere). Briefly, the fluorescein molecule (FITC) was enzymatically incorporated into PARP1 in a reaction containing PARP1C (2 μM), the PARP1 DBD (2 μM), a 24 mer nicked DNA oligo (2 μM), and a mixture of unlabeled NAD^+ (Sigma) and FITC-NAD^+ (Trevigen) substrates (total NAD^+ concentration of 100 μM). After incubation for 1 h at 37 °C, PARylated PARP1 was desalted using a PD-10 desalting column (GE healthcare) in a buffer containing 25 mM Tris-HCl (pH 7.5), 50 mM NaCl, and 0.01% NP-40 and used as the FRET acceptor. The biotin-tagged BRCT1 domain of XRCC1 (BRCT1, 5 nM) was conjugated with an equimolar concentration of Tb^3+-chelated streptavidin (Life Technologies) in TR-FRET assay buffer (FRET donor). […] The reaction was started by the addition of the FRET pair of FITC-labeled PARP1 (42 nM) and Tb^3+-BRCT1 (5 nM). The TR-FRET signal was subsequently monitored for 60 min.
# Small molecule inhibitors of PARG were identified by high-throughput screening (HTS) using the TR-FRET PAR turnover assay. Compounds (final concentration of 6.7 μM) from the NCI Diversity Set II library (1990 compounds) were pre dispensed into black polystyrene 384-well plates (Corning) using a Hummingbird liquid handler (Digilab). Then, 10 μl of rat PARG^385–972 (12.5 nM and 25 nM) were subsequently dispensed into plates, using a multi-drop combi nL reagent dispenser (Thermo Scientific) and incubated with compounds for 1 h at 4 °C. The reaction was initiated by the addition of 20 μl of the premixed FRET pair of FITC-labeled PARP1 (42 nM) and Tb^3+-BRCT1 (5 nM), and the TR-FRET signal was monitored every 4 min for 40 min (11 data points). Hits were selected by visually comparing the rate of the TR-FRET signal decrease in each well to that of negative control reactions containing DMSO (Fig. 1b and see Text for details). The HTS was performed at the High-Throughput Screening Core (HTSC) at Washington University School of Medicine.
# A172 glioblastoma cells = assay: Sulforhodamine B (SRB) cytotoxicity assay; conditions: 72 h
# Method: Normalized % viabilities are plotted against log concentration. Error bars show the percent coefficient of variation. […] Mann-Whitney test was used to generate the p-value. The DNA spread assay is the representation of two independently repeated experiments. Source Data are provided as a Source Data file.
# Cells were plated in 96-well plates, treated as designated in reduced 5% FBS and fixed with trichloroacetic acid after 72 h, as previously described by[43]. […] Colorimetric or fluorescence analysis was performed in a FlexStation 3, using SoftMax Pro 7.0, Molecular Devices. Normalized graphs were generated with Prism 8 software, non-linear 4-parameter data fitting was performed for IC50 calculation.
# Human PARG = target: T2, Human PARG (Homo sapiens, UniProt Q86W56); assay: Gel-based PARG activity assay; type: biochemical; conditions: for IC50: hPARG 1 nM, PARylated PARP1C 500 nM, 30 min; for inhibition at 0.0488281 µM: [L] 0.0488281 uM; for inhibition at 0.0976562 µM: [L] 0.0976562 uM; for inhibition at 0.195312 µM: [L] 0.195312 uM; for inhibition at 0.390625 µM: [L] 0.390625 uM; for inhibition at 0.78125 µM: [L] 0.78125 uM; for inhibition at 1.5625 µM: [L] 1.5625 uM; for inhibition at 3.125 µM: [L] 3.125 uM; for inhibition at 6.25 µM: [L] 6.25 uM; for inhibition at 12.5 µM: [L] 12.5 uM; for inhibition at 25 µM: [L] 25 uM; for inhibition at 50 µM: [L] 50 uM
# T2 construct: The human PARG (hPARG) catalytic domain (residues 389–976) was cloned in pET28a (Novagen); His-tag (N); made in house; host or cells: E. coli Rosetta
# Method: PARP1C (2 μM) is enzymatically auto-modified in a reaction containing the PARP1 DBD (2 μM), a 24 mer nicked DNA oligo (2 μM), and NAD^+ (300 μM) for 1 h at 37 °C, as described previously. Human PARG^389–976 (1 nM) was pre-incubated with compounds for 1 h at room temperature. The reaction was initiated by the addition of PARylated PARP1 (final concentration of 500 nM) and quenched after 30 min incubation at room temperature by adding SDS-PAGE sample buffer. The gel was visualized by sypro-ruby staining[18] and the retained PARylated PARP1C species were quantified using ImageJ[59]. PARylated PARP1C that migrates slower than unmodified PARP1C was quantified. […] The IC50 values were determined by fitting the dose-response data for each compound to a four-parameter logistic equation using SigmaPlot (Systat Software Inc.).
# To test the specificity of JA2131, human PARG^389–976 (1 nM) was pre-incubated with JA2131 (5, 10, and 20 μM) in the presence and absence of 0.1% Triton-X 100 or 0.1 mg/ml BSA for 1 h at room temperature. The reaction was initiated, quenched, visualized, and quantified as described above. […]
# PARG activity assay. […]
# PARP1 (500 nM). The reaction was quenched after a 30 -minu te in cu ba tion a t roo m te mpe ra tu re by adding SDS-PA GE sa mp le bu f fe r. PARylated PARP1C runs as a smear on SDS -PAGE that is reduced to a single band by PARG treatment. […]
# 2). (b) Qu an t if ica t ion o f the dose-response PARG inhibition by JA2 -3 using the gel-based PARG activity assay. hPARG (1 nM) was preincubated with increasing concentrations (0.032 – 1 µM) of JA2-3 f o r 1 hour at room temperature before PARylated PARP1C (500 nM) was added. The reaction was quenched after a 30-minu te incubation at room temperature. PARylated PARP1C migrates slower than unmodified PARP1C and was quantified using ImageJ. […] The rate of the PARG-dependent signal loss in the TR-FRET PAR turnover assay is not equivalent to the steady-state rate of PAR turnover, because the TR-FRET assay can’t detect signal loss until the length of PAR chains become shorter than 7 ADP-ribose units. Therefore, we used the gel-based PARG activity assay to accurately determine the IC50 values throughout the manuscript .
# T1 sequence (Q9QYM2 385-972): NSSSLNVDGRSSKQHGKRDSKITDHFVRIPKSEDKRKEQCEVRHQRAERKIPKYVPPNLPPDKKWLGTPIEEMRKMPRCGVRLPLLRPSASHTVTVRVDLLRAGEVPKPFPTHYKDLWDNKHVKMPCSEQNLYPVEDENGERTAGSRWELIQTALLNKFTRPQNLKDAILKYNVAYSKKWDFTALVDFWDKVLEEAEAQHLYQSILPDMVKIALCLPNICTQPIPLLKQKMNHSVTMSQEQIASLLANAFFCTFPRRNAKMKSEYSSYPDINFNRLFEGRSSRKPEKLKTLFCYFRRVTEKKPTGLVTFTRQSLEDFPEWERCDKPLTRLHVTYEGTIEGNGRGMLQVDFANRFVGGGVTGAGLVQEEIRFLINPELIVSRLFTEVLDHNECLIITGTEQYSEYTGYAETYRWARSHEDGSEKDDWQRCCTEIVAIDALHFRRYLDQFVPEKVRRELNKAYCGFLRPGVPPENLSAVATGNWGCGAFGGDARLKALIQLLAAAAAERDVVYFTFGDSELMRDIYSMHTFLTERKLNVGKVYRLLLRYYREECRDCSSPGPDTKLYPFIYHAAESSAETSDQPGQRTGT
# T2 sequence (Q86W56 389-976): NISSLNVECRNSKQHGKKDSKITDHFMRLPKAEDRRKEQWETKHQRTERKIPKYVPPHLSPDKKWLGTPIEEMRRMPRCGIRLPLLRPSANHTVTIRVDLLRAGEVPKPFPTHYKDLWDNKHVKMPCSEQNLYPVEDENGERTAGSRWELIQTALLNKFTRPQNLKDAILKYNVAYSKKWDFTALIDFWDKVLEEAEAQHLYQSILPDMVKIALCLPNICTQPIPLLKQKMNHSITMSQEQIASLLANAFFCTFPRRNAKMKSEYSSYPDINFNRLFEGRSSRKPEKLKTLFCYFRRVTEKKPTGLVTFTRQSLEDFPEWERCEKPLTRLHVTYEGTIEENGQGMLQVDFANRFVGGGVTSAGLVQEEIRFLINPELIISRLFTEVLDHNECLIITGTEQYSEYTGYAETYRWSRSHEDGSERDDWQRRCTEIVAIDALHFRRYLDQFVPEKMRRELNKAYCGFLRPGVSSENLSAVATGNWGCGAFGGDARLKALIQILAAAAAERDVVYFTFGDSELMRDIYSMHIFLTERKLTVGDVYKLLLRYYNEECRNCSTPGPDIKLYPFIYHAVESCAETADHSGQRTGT
structure (smiles),measurement,setting,value
O=C1C=CC(=Nc2cccc3c(N=C4C=CC(=O)O4)cccc23)O1 [JA1-3],IC50,rat PARG,~400 nM
NC(=O)NO [Hydroxyurea],IC50,A172 glioblastoma cells,381000 ± 117000 nM
O=c1[nH]c2[nH]c(=S)[nH]c(=S)c2[nH]1 [JA2-3],inhibition at 0.0001 µM,"Human PARG; 0.5 h, [L] 1.00E-04 uM",0%
same,inhibition at 0.03125 µM,Human PARG; [L] 0.03125 uM,17%
same,inhibition at 0.0625 µM,Human PARG; [L] 0.0625 uM,35.9%
same,inhibition at 0.125 µM,Human PARG; [L] 0.125 uM,56.7%
same,inhibition at 0.25 µM,Human PARG; [L] 0.25 uM,74.4%
same,inhibition at 0.5 µM,Human PARG; [L] 0.5 uM,88%
same,inhibition at 1 µM,Human PARG; [L] 1 uM,103%
same,IC50,Human PARG,100 nM
same,TR-FRET,"rat PARG; 12.5 nM PARG, 0 min",1.1077
same,TR-FRET,"rat PARG; 12.5 nM PARG, 4 min",1.1706
same,TR-FRET,"rat PARG; 12.5 nM PARG, 8 min",1.1753
same,TR-FRET,"rat PARG; 12.5 nM PARG, 12 min",1.0984
same,TR-FRET,"rat PARG; 12.5 nM PARG, 16 min",1.1414
same,TR-FRET,"rat PARG; 12.5 nM PARG, 20 min",1.0328
same,TR-FRET,"rat PARG; 12.5 nM PARG, 24 min",0.9368
same,TR-FRET,"rat PARG; 12.5 nM PARG, 28 min",0.9375
same,TR-FRET,"rat PARG; 12.5 nM PARG, 32 min",0.9636
same,TR-FRET,"rat PARG; 12.5 nM PARG, 36 min",0.9240
same,TR-FRET,"rat PARG; 12.5 nM PARG, 40 min",0.9660
same,TR-FRET,"rat PARG; 25 nM PARG, 0 min",1.1716
same,TR-FRET,"rat PARG; 25 nM PARG, 4 min",1.2418
same,TR-FRET,"rat PARG; 25 nM PARG, 8 min",1.1876
same,TR-FRET,"rat PARG; 25 nM PARG, 12 min",1.1061
same,TR-FRET,"rat PARG; 25 nM PARG, 16 min",1.0537
same,TR-FRET,"rat PARG; 25 nM PARG, 20 min",1.0170
same,TR-FRET,"rat PARG; 25 nM PARG, 24 min",0.9403
same,TR-FRET,"rat PARG; 25 nM PARG, 28 min",0.9903
same,TR-FRET,"rat PARG; 25 nM PARG, 32 min",1.0366
same,TR-FRET,"rat PARG; 25 nM PARG, 36 min",0.9358
same,TR-FRET,"rat PARG; 25 nM PARG, 40 min",1.0455
Cn1c(=O)c2[nH]c(SCCN3CCOCC3)nc2n(C)c1=S [JA2-5],inhibition at 0.0488281 µM,Human PARG,6.3%
same,inhibition at 0.0976562 µM,Human PARG,19.6%
same,inhibition at 0.195312 µM,Human PARG,28.3%
same,inhibition at 0.390625 µM,Human PARG,27.3%
same,inhibition at 0.78125 µM,Human PARG,35.2%
same,inhibition at 1.5625 µM,Human PARG,71%
same,inhibition at 3.125 µM,Human PARG,81.9%
same,inhibition at 6.25 µM,Human PARG,87.9%
same,inhibition at 12.5 µM,Human PARG,89.1%
same,inhibition at 25 µM,Human PARG,99.8%
same,inhibition at 50 µM,Human PARG,104%
same,IC50,Human PARG,1000 nM
Cn1c(=S)c2nc(SCCN3CCCC3)[nH]c2n(C)c1=O [JA2-4],inhibition at 0.0488281 µM,Human PARG,2.01%
same,inhibition at 0.0976562 µM,Human PARG,4.3%
same,inhibition at 0.195312 µM,Human PARG,25.2%
same,inhibition at 0.390625 µM,Human PARG,34.9%
same,inhibition at 0.78125 µM,Human PARG,48.4%
same,inhibition at 1.5625 µM,Human PARG,67%
same,inhibition at 3.125 µM,Human PARG,70.1%
same,inhibition at 6.25 µM,Human PARG,78.4%
same,inhibition at 12.5 µM,Human PARG,87.5%
same,inhibition at 25 µM,Human PARG,93.6%
same,inhibition at 50 µM,Human PARG,100%
same,IC50,Human PARG,900 nM
Cn1c(=O)c2[nH]c(SCCN3CCOCC3)nc2n(C)c1=O [JA2120],potency difference JA2131 (6´-thiocarbonyl) vs JA2120 (6´-carbonyl),Human PARG,more than 50 fold
same,inhibition at 0.0488281 µM,Human PARG,6.05%
same,inhibition at 0.0976562 µM,Human PARG,5.87%
same,inhibition at 0.195312 µM,Human PARG,7.21%
same,inhibition at 0.390625 µM,Human PARG,10.4%
same,inhibition at 0.78125 µM,Human PARG,16.2%
same,inhibition at 1.5625 µM,Human PARG,24.6%
same,inhibition at 3.125 µM,Human PARG,25.7%
same,inhibition at 6.25 µM,Human PARG,24.7%
same,inhibition at 12.5 µM,Human PARG,33.9%
same,inhibition at 25 µM,Human PARG,45.5%
same,inhibition at 50 µM,Human PARG,67%
same,inhibition at 100 µM,Human PARG; [L] 100 uM,88.3%
same,IC50,Human PARG,25700 nM
CCCOCN1C(=O)C=CC1=O [JA1-1],IC50,rat PARG,1000 to 2000 nM
